# Laboratory results published in patent publication US20240041840A1 (Areteia Therapeutics, Inc., priority 2020, published 2024).
# Read-outs that look alike come from different tables or passages of the source.
# System: subjects with eosinophilic asthma
# Procedure: Pulmonary function is measured by performing a spirometry, which measures forced expiratory volume in is (FEV1), the volume of air moved in the first second of exhalation, this is a well-accepted measure of asthma. Forced vital capacity (FVC) is the total volume of air exhaled during the entire forced expiratory volume (FEV) test. The FEV1/FVC ratio is a calculated measure that may provide a more specific measure of bronchoconstriction, independent of processes such as air trapping. Pulmonary function testing can be tested pre-bronchodilator (after waiting a sufficient time so that all bronchodilator medications have cleared) or post-bronchodilator, typically 15-30 minutes after inhaling a short-acting bronchodilator, such as albuterol. Bronchodilator reversibility (BDR) is calculated and assessed by analyzing FEV1 pre- and post-bronchodilator, and calculating the change both as absolute (ml) and percentage change.
# Evaluation of Efficacy: Blood eosinophil count, changes in pulmonary function (FEV1), Asthma Control Questionnaire (ACQ-6), Asthma Control Questionnaire (ACQ-7), Asthma Quality of Life Questionnaire (AQLQ), exhaled nitric oxide, pharyngeal and nasal eosinophil peroxidase were collected periodically during the study.
# To control the alpha level for testing 3 dose groups versus placebo for the primary endpoint and for testing FEV1, a closed hierarchical testing procedure was used in the following order: 1. First, the 300 mg/day dose group was tested versus placebo for change in blood absolute eosinophil count, and if this reached the <0.05 level then, 2. the 150 mg/day dose group was tested versus placebo at the 0.05 level for change in blood absolute eosinophil count, and if this reached the <0.05 level then, 3. the pooled 150 and 300 mg/day dose groups were tested versus placebo at the 0.05 level for change in FEV1 at Week 12, then 4. the 75 mg/day dose group was tested versus placebo at the 0.05 level for change in blood absolute eosinophil count, and if this reached the <0.05 level.
# [1] = 75 mg/day, Table 6D, timepoint printed as Analysis Baseline*
# [2] = 75 mg/day, Table 6D, timepoint printed as Week 4
# [3] = 150 mg/day, Table 6D, timepoint printed as Analysis Baseline*
# [4] = 150 mg/day, Table 6D, timepoint printed as Week 4
# [5] = 300 mg/day, Table 6D, timepoint printed as Analysis Baseline*
# [6] = 300 mg/day, Table 6D, timepoint printed as Week 4
# [7] = Week 4, pooled dexpramipexole arms, <50% AEC reduction at Week 12
# [8] = Week 4, pooled dexpramipexole arms, ≥50% AEC reduction at Week 12
# [9] = Week 8, pooled dexpramipexole arms, ≥50% AEC reduction at Week 12
# [10] = Week 12, pooled dexpramipexole arms, <50% AEC reduction at Week 12
# [11] = Week 12, pooled dexpramipexole arms, ≥50% AEC reduction at Week 12
# [12] = Week 16 or Week 18, pooled dexpramipexole arms, ≥50% AEC reduction at Week 12
smiles,measurement,setting,value
"CCCN[C@@H]1CCc2nc(N)sc2C1 [dexpramipexole, (6R)-2-amino-4,5,6,7-tetrahydro-6-(propylamino) benzothiazole]","Pre-Bronchodilator FEV1 % change, mean",[1],12.0%
same,"Pre-Bronchodilator FEV1 % change, median",[1],10.7%
same,"Pre-Bronchodilator FEV1 change, mean",[1],0.237 L
same,"Pre-Bronchodilator FEV1 change, median",[1],0.170 L
same,"Pre-Bronchodilator FEV1 observed, mean",[1],228 L
same,"Pre-Bronchodilator FEV1 observed, median",[1],2.24 L
same,"Pre-Bronchodilator FEV1 % change, mean",[2],9.27%
same,"Pre-Bronchodilator FEV1 % change, median",[2],5.48%
same,"Pre-Bronchodilator FEV1 change, mean",[2],0.207 L
same,"Pre-Bronchodilator FEV1 change, median",[2],0.115 L
same,"Pre-Bronchodilator FEV1 observed, mean",[2],2.24 L
same,"Pre-Bronchodilator FEV1 observed, median",[2],2.08 L
same,FEV1 change from Baseline LSM,"75 mg/day, Week 4",0.150 L
same,FEV1 difference versus Placebo LSM,"75 mg/day, Week 4",0.165 L
same,"Pre-Bronchodilator FEV1 % change, median","75 mg/day, Week 4",4.85%
same,"Pre-Bronchodilator FEV1, % change from Baseline, mean","75 mg/day, Week 4",6.25%
same,"Pre-Bronchodilator FEV1 change, mean","75 mg/day, Week 4",0.130 L
same,"Pre-Bronchodilator FEV1 change, median","75 mg/day, Week 4",0.0750 L
same,"Pre-Bronchodilator FEV1 observed, mean","75 mg/day, Week 4",2.10 L
same,"Pre-Bronchodilator FEV1 observed, median","75 mg/day, Week 4",2.10 L
same,"Pre-Bronchodilator Percent Predicted FEV1 % change, mean","75 mg/day, Week 4",62.4%
same,"Pre-Bronchodilator Percent Predicted FEV1 % change, median","75 mg/day, Week 4",4.85%
same,"Pre-Bronchodilator Percent Predicted FEV1 change, mean","75 mg/day, Week 4",3.59%
same,"Pre-Bronchodilator Percent Predicted FEV1 change, median","75 mg/day, Week 4",2.69%
same,"Pre-Bronchodilator Percent Predicted FEV1 observed, mean","75 mg/day, Week 4",62.2%
same,"Pre-Bronchodilator Percent Predicted FEV1 observed, median","75 mg/day, Week 4",64.4%
same,FEV1 change from Baseline LSM,"75 mg/day, Week 8",0.204 L
same,FEV1 difference versus Placebo LSM,"75 mg/day, Week 8",0.210 L
same,"Pre-Bronchodilator FEV1, % change from Baseline, mean","75 mg/day, Week 8",12.0%
same,FEV1 change from Baseline LSM,"75 mg/day, Week 12",0.168 L
same,FEV1 difference versus Placebo LSM,"75 mg/day, Week 12",0.121 L
same,"Pre-Bronchodilator FEV1, % change from Baseline, mean","75 mg/day, Week 12",9.27%
same,FEV1 change from Baseline LSM,"75 mg/day, Week 16 or Week 18",0.295 L
same,FEV1 difference versus Placebo LSM,"75 mg/day, Week 16 or Week 18",0.327 L
same,"Pre-Bronchodilator FEV1, % change from Baseline, mean","75 mg/day, Week 16 or Week 18",17.6%
same,"ΔFEV1 vs Placebo LSM (SEM), pooled data","75 mg/day, Weeks 4, 8, 12, & 16/18 pooled",206 mL
same,"Pre-Bronchodilator FEV1 % change, mean",[3],7.57%
same,"Pre-Bronchodilator FEV1 % change, median",[3],3.88%
same,"Pre-Bronchodilator FEV1 change, mean",[3],0.130 L
same,"Pre-Bronchodilator FEV1 change, median",[3],0.0900 L
same,"Pre-Bronchodilator FEV1 observed, mean",[3],2.21 L
same,"Pre-Bronchodilator FEV1 observed, median",[3],2.22 L
same,"Pre-Bronchodilator FEV1 % change, mean",[4],3.14%
same,"Pre-Bronchodilator FEV1 % change, median",[4],−1.72%
same,"Pre-Bronchodilator FEV1 change, mean",[4],0.0414 L
same,"Pre-Bronchodilator FEV1 change, median",[4],-0.0400 L
same,"Pre-Bronchodilator FEV1 observed, mean",[4],2.12 L
same,"Pre-Bronchodilator FEV1 observed, median",[4],2.11 L
same,FEV1 change from Baseline LSM,"150 mg/day, Week 4",0.151 L
same,FEV1 difference versus Placebo LSM,"150 mg/day, Week 4",0.166 L
same,"Pre-Bronchodilator FEV1 % change, median","150 mg/day, Week 4",4.54%
same,"Pre-Bronchodilator FEV1, % change from Baseline, mean","150 mg/day, Week 4",7.31%
same,"Pre-Bronchodilator FEV1 change, mean","150 mg/day, Week 4",0.123 L
same,"Pre-Bronchodilator FEV1 change, median","150 mg/day, Week 4",0.0800 L
same,"Pre-Bronchodilator FEV1 observed, mean","150 mg/day, Week 4",2.15 L
same,"Pre-Bronchodilator FEV1 observed, median","150 mg/day, Week 4",2.05 L
same,"Pre-Bronchodilator Percent Predicted FEV1 % change, mean","150 mg/day, Week 4",7.31%
same,"Pre-Bronchodilator Percent Predicted FEV1 % change, median","150 mg/day, Week 4",4.54%
same,"Pre-Bronchodilator Percent Predicted FEV1 change, mean","150 mg/day, Week 4",3.95%
same,"Pre-Bronchodilator Percent Predicted FEV1 change, median","150 mg/day, Week 4",2.85%
same,"Pre-Bronchodilator Percent Predicted FEV1 observed, mean","150 mg/day, Week 4",67.4%
same,"Pre-Bronchodilator Percent Predicted FEV1 observed, median","150 mg/day, Week 4",69.2%
same,FEV1 change from Baseline LSM,"150 mg/day, Week 8",0.166 L
same,FEV1 difference versus Placebo LSM,"150 mg/day, Week 8",0.173 L
same,"Pre-Bronchodilator FEV1, % change from Baseline, mean","150 mg/day, Week 8",7.57%
same,FEV1 change from Baseline LSM,"150 mg/day, Week 12",0.0601 L
same,"Pre-Bronchodilator FEV1, % change from Baseline, mean","150 mg/day, Week 12",3.14%
same,FEV1 difference versus Placebo LSM,"150 mg/day, Week 16 or Week 18",0.161 L
same,"Pre-Bronchodilator FEV1, % change from Baseline, mean","150 mg/day, Week 16 or Week 18",7.71%
same,"ΔFEV1 vs Placebo LSM (SEM), pooled data","150 mg/day, Weeks 4, 8, 12, & 16/18 pooled",126 mL
same,Placebo-corrected FEV1 increase from baseline,"300 mg/day arm, averaged Week 8 through Week 16/18","counts. In the 300 mg/day arm, placebo-corrected FEV1 increased more than 200 mL from baseline, averaged"
same,"Pre-Bronchodilator FEV1 % change, mean",[5],15.5%
same,"Pre-Bronchodilator FEV1 % change, median",[5],10.5%
same,"Pre-Bronchodilator FEV1 change, mean",[5],0.277 L
same,"Pre-Bronchodilator FEV1 change, median",[5],0.250 L
same,"Pre-Bronchodilator FEV1 observed, mean",[5],2.32 L
same,"Pre-Bronchodilator FEV1 observed, median",[5],2.40 L
same,"Pre-Bronchodilator FEV1 % change, mean",[6],12.5%
same,"Pre-Bronchodilator FEV1 % change, median",[6],10.0%
same,"Pre-Bronchodilator FEV1 change, mean",[6],0.236 L
same,"Pre-Bronchodilator FEV1 change, median",[6],0.210 L
same,"Pre-Bronchodilator FEV1 observed, mean",[6],2.29 L
same,"Pre-Bronchodilator FEV1 observed, median",[6],2.45 L
same,FEV1 change from Baseline LSM,"300 mg/day, Week 4",0.0685 L
same,FEV1 difference versus Placebo LSM,"300 mg/day, Week 4",0.0838 L
same,"Pre-Bronchodilator FEV1 % change, median","300 mg/day, Week 4",3.95%
same,"Pre-Bronchodilator FEV1, % change from Baseline, mean","300 mg/day, Week 4",1.42%
same,"Pre-Bronchodilator FEV1 change, mean","300 mg/day, Week 4",0.0417 L
same,"Pre-Bronchodilator FEV1 change, median","300 mg/day, Week 4",0.0700 L
same,"Pre-Bronchodilator FEV1 observed, mean","300 mg/day, Week 4",2.14 L
same,"Pre-Bronchodilator FEV1 observed, median","300 mg/day, Week 4",2.16 L
same,"Pre-Bronchodilator Percent Predicted FEV1 % change, mean","300 mg/day, Week 4",1.42%
same,"Pre-Bronchodilator Percent Predicted FEV1 % change, median","300 mg/day, Week 4",3.94%
same,"Pre-Bronchodilator Percent Predicted FEV1 change, mean","300 mg/day, Week 4",0.607%
same,"Pre-Bronchodilator Percent Predicted FEV1 change, median","300 mg/day, Week 4",2.34%
same,"Pre-Bronchodilator Percent Predicted FEV1 observed, mean","300 mg/day, Week 4",62.5%
same,"Pre-Bronchodilator Percent Predicted FEV1 observed, median","300 mg/day, Week 4",62.3%
same,FEV1 change from Baseline LSM,"300 mg/day, Week 8",0.248 L
same,FEV1 difference versus Placebo LSM,"300 mg/day, Week 8",0.254 L
same,"Pre-Bronchodilator FEV1, % change from Baseline, mean","300 mg/day, Week 8",15.5%
same,FEV1 change from Baseline LSM,"300 mg/day, Week 12",0.209 L
same,FEV1 difference versus Placebo LSM,"300 mg/day, Week 12",0.162 L
same,"Pre-Bronchodilator FEV1, % change from Baseline, mean","300 mg/day, Week 12",12.5%
same,FEV1 change from Baseline LSM,"300 mg/day, Week 16 or Week 18",0.207 L
same,FEV1 difference versus Placebo LSM,"300 mg/day, Week 16 or Week 18",0.240 L
same,"Pre-Bronchodilator FEV1, % change from Baseline, mean","300 mg/day, Week 16 or Week 18",10.8%
same,"ΔFEV1 vs Placebo LSM (SEM), pooled data","300 mg/day, Weeks 4, 8, 12, & 16/18 pooled",185 mL
same,Improvement in FEV1,150 and 75 mg/day arms,Week 8 through Week 16/18. Substantial improvements in FEV1 were also seen in the 150 and 75 mg/day arms.
same,"ΔFEV1 vs Placebo LSM (SEM), pooled data","All Dex arms pooled, Week 4",138 mL
same,"ΔFEV1 vs Placebo LSM (SEM), pooled data","All Dex arms pooled, Week 8",212 mL
same,"ΔFEV1 vs Placebo LSM (SEM), pooled data","All Dex arms pooled, Week 12",99 mL
same,"ΔFEV1 vs Placebo LSM (SEM), pooled data","All Dex arms pooled, Week 16/18",233 mL
same,"ΔFEV1 vs Placebo LSM (SEM), pooled data","All Dex arms pooled, Weeks 4, 8, 12, & 16/18 pooled",173 mL
same,Magnitude and statistical significance of FEV1 improvement from baseline compared with other drugs,"Table 5, FIG. 3, FIG. 6",comparable or greater than that demonstrated in phase 2 clinical trials of benralizumab and mepolizumab
same,Pre-Bronchodilator FEV1 Change from Baseline LSM,[7],0.0742 L
same,Pre-Bronchodilator FEV1 Difference versus Placebo LSM,[7],0.0859 L
same,Pre-Bronchodilator FEV1 Change from Baseline LSM,[8],0.163 L
same,Pre-Bronchodilator FEV1 Difference versus Placebo LSM,[8],0.175 L
same,Pre-Bronchodilator FEV1 Difference versus Placebo LSM,"Week 8, pooled dexpramipexole arms, <50% AEC reduction at Week 12",0.132 L
same,Pre-Bronchodilator FEV1 Change from Baseline LSM,[9],0.275 L
same,Pre-Bronchodilator FEV1 Difference versus Placebo LSM,[9],0.276 L
same,Pre-Bronchodilator FEV1 Change from Baseline LSM,[10],0.00797 L
same,Pre-Bronchodilator FEV1 Difference versus Placebo LSM,[10],-0.0448 L
same,Pre-Bronchodilator FEV1 Change from Baseline LSM,[11],0.261 L
same,Pre-Bronchodilator FEV1 Difference versus Placebo LSM,[11],0.208 L
same,Pre-Bronchodilator FEV1 Difference versus Placebo LSM,"Week 16 or Week 18, pooled dexpramipexole arms, <50% AEC reduction at Week 12",0.169 L
same,Pre-Bronchodilator FEV1 Change from Baseline LSM,[12],0.258 L
same,Pre-Bronchodilator FEV1 Difference versus Placebo LSM,[12],0.287 L
same,FEV1 in hematologic responders,"all post-baseline time points (Table 12, FIG. 5)",significant increase
